Assay results as given in patent US20140094465A1, “Compounds as S-Nitrosoglutathione Reductase Inhibitors” (N30 PHARMACEUTICALS, INC., priority 2011, published 2014).
Like-named read-outs stand apart in the source and are kept apart here.

Molecular target: T1, S-nitrosoglutathione reductase (GSNOR) (Homo sapiens, UniProt P11766)
T1 construct: made in house; host or cells: E. coli
Test: GSNOR assay (inhibition of GSNOR activity, NADH absorbance at 340 nm)
Format: biochemical
Procedure, shortened: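 Recombinant GSNOR purified from E. coli, tag removed. Final conditions: 100 mM NaPO4 pH 7.4, 0.240 mM GSNO, 0.300 mM NADH, 0.5 μg/mL enzyme, 1% DMSO; NADH loss followed as 340 nm absorbance change over 3 min at 25 °C. Compounds 100–0.003 μM, triplicate; IC50 by curve analysis.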

[1] = GSNOR inhibitor activity, Tables 1-6, read-out: IC50 range
[2] = Table 7, GSNOR inhibition, IC50 range class a/b/c, read-out: IC50

T1 sequence (P11766 whole entry): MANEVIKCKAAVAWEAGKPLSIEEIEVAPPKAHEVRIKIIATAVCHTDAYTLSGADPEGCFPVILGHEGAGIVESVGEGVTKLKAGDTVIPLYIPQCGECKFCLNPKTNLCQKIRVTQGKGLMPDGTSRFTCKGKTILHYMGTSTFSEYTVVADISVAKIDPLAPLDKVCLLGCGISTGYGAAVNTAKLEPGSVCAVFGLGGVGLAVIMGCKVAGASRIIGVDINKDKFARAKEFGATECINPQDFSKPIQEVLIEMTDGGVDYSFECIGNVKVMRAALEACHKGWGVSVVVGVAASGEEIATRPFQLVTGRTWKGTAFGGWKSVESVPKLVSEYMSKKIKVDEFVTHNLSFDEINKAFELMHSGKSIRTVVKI

Row | Structure (SMILES) | IC50 [1] [nM] | IC50 [2] [nM]
1 | O=C(O)c1ccc(CS(=O)(=O)c2ccc(O)cc2)c(F)c1 [VI-26, 3-fluoro-4-(((4-hydroxyphenyl)sulfonyl)methyl)benzoic acid] | < 100 | 
2 | O=C(O)c1ccc(CC(=O)c2ccc(O)c(F)c2O)c(F)c1 [VI-27, 3-fluoro-4-(2-(3-fluoro-2,4-dihydroxyphenyl)-2-oxoethyl)benzoic acid] | 100 to 1000 | 
3 | O=C(O)c1ccc(CCC(=O)c2ccc(O)c(F)c2F)cc1 [VI-29, 4-(3-(2,3-difluoro-4-hydroxyphenyl)-3-oxopropyl)benzoic acid] | 1000 to 10000 | 
4 | O=C(O)c1ccc(CCC(=O)c2ccc(O)cc2)cc1 [VI-30, 4-(3-(4-hydroxyphenyl)-3-oxopropyl)benzoic acid] | 1000 to 10000 | 
5 | O=C(O)c1ccc(NCc2ccc(O)c(F)c2)c(F)c1 [VI-31, 3-fluoro-4-((3-fluoro-4-hydroxybenzyl)amino)benzoic acid] | 1000 to 10000 | 
6 | O=C(O)c1ccc(NCc2ccc(O)c(F)c2F)c(F)c1 [VI-32, 4-((2,3-difluoro-4-hydroxybenzyl)amino)-3-fluorobenzoic acid] | 100 to 1000 | 
7 | O=C(O)c1ccc(NCc2ccc(O)cc2F)c(F)c1 [VI-33, 3-fluoro-4-((2-fluoro-4-hydroxybenzyl)amino)benzoic acid] | 1000 to 10000 | 
8 | O=C(O)c1ccc(-c2nc(-c3ccc(O)cc3)cs2)cc1 [VII-1, 4-(4-(4-hydroxyphenyl)thiazol-2-yl)benzoic acid] |  | 1000 to 10000
9 | O=C(O)c1ccc(-c2csc(-c3ccc(O)cc3)n2)cc1 [VII-2, 4-(2-(4-hydroxyphenyl)thiazol-4-yl)benzoic acid] |  | 100 to 1000
10 | O=C(O)c1ccc(-c2csc(-c3ccc(O)c(F)c3)n2)s1 [VII-3, 5-(2-(3-fluoro-4-hydroxyphenyl)thiazol-4-yl)thiophene-2-carboxylic acid] |  | < 100
11 | O=C(O)c1ccc(-c2ccc(-c3ccc(O)cc3)s2)cc1 [VII-4, 4-(5-(4-hydroxyphenyl)thiophen-2-yl)benzoic acid] |  | 100 to 1000
12 | O=C(O)c1cccc(-c2csc(-c3ccc(O)c(F)c3)n2)c1 [VII-5, 3-(2-(3-fluoro-4-hydroxyphenyl)thiazol-4-yl)benzoic acid] |  | 100 to 1000
13 | O=C(O)c1ccc(-c2csc(-c3ccc(O)c(F)c3)n2)cc1 [VII-6, 4-(2-(3-fluoro-4-hydroxyphenyl)thiazol-4-yl)benzoic acid] |  | 100 to 1000
14 | O=C(O)c1ccc(-c2ccc(-c3ccc(O)c(F)c3)s2)cc1 [VII-7, 4-(5-(3-fluoro-4-hydroxyphenyl)thiophen-2-yl)benzoic acid] |  | 100 to 1000
15 | O=C(O)c1ccc(-c2ccc(-c3ccc(O)cc3F)s2)cc1 [VII-8, 4-(5-(2-fluoro-4-hydroxyphenyl)thiophen-2-yl)benzoic acid] |  | 100 to 1000
16 | O=C(O)c1ccc(-c2csc(-c3ccc(O)cc3)n2)s1 [VII-9, 5-(2-(4-hydroxyphenyl)thiazol-4-yl)thiophene-2-carboxylic acid] |  | < 100
17 | O=C(O)c1ccc(-c2cnc(-c3ccc(O)c(F)c3)s2)s1 [VII-10, 5-(2-(3-fluoro-4-hydroxyphenyl)thiazol-5-yl)thiophene-2-carboxylic acid] |  | < 100
18 | O=C(O)c1ccc(-c2ccc(-c3ccc(O)cc3)cc2)cc1 [VII-11, 4″-hydroxy-[1,1′:4′,1″-terphenyl]-4-carboxylic acid] |  | 100 to 1000
19 | O=C(O)c1ccc(-c2ccc(-c3ccc(O)cc3)s2)s1 [VII-12, 5′-(4-hydroxyphenyl)-2,2′-bithiophene-5-carboxylic acid] |  | 100 to 1000
20 | O=C(O)c1ccc(-c2ncc(-c3ccc(O)cc3)s2)s1 [VII-13, 5-(5-(4-hydroxyphenyl)thiazol-2-yl)thiophene-2-carboxylic acid] |  | 100 to 1000

Row | Structure (SMILES) | IC50 [1] [nM] | IC50 [2] [nM]
21 | O=C(O)c1ccc(-c2ncc(-c3ccc(O)cc3)cn2)cc1 [VII-14, 4-(5-(4-hydroxyphenyl)pyrimidin-2-yl)benzoic acid] |  | 1000 to 10000
22 | O=C(O)c1ccc(-c2cnc(-c3ccc(O)cc3)nc2)cc1 [VII-15, 4-(2-(4-hydroxyphenyl)pyrimidin-5-yl)benzoic acid] |  | 1000 to 10000
23 | O=C(O)c1ccc(-c2cnc(-c3ccc(O)cc3)s2)s1 [VII-16, 5-(2-(4-hydroxyphenyl)thiazol-5-yl)thiophene-2-carboxylic acid] |  | < 100
24 | O=C(O)c1ccc(-c2ccc(-c3ccc(O)c(F)c3)s2)s1 [VII-17, 5′-(3-fluoro-4-hydroxyphenyl)-[2,2′-bithiophene]-5-carboxylic acid] |  | < 100
25 | O=C(O)c1cccc(-c2csc(-c3ccc(O)cc3)n2)c1 [VII-18, 3-(2-(4-hydroxyphenyl)thiazol-4-yl)benzoic acid] |  | 1000 to 10000
26 | O=C(O)c1ccc(-c2cc(-c3ccc(O)cc3)cs2)s1 [VII-19, 4′-(4-hydroxyphenyl)-[2,2′-bithiophene]-5-carboxylic acid] |  | 100 to 1000
27 | O=C(O)c1ccc(-c2csc(-c3ccc(O)cc3)c2)s1 [VII-20, 5′-(4-hydroxyphenyl)-[2,3′-bithiophene]-5-carboxylic acid] |  | 100 to 1000
28 | O=C(O)c1ccc(-c2ccc(-c3ccc(O)cc3)cc2)s1 [VII-21, 5-(4′-hydroxy-[1,1′-biphenyl]-4-yl)thiophene-2-carboxylic acid] |  | 100 to 1000
29 | O=C(O)c1ccc(-c2ccc(-c3ccc(O)cc3)[nH]2)cc1 [VII-23, 4-(5-(4-hydroxyphenyl)-1H-pyrrol-2-yl)benzoic acid] |  | 1000 to 10000
30 | Cn1c(-c2ccc(O)cc2)ccc1-c1ccc(C(=O)O)s1 [VII-24, 5-(5-(4-hydroxyphenyl)-1-methyl-1H-pyrrol-2-yl)thiophene-2-carboxylic acid] |  | 100 to 1000
31 | COCCn1c(-c2ccc(O)cc2)ccc1-c1ccc(C(=O)O)s1 [VII-25, 5-(5-(4-hydroxyphenyl)-1-(2-methoxyethyl)-1H-pyrrol-2-yl)thiophene-2-carboxylic acid] |  | < 100
32 | CCCCn1c(-c2ccc(O)cc2)ccc1-c1ccc(C(=O)O)s1 [VII-26, 5-(1-butyl-5-(4-hydroxyphenyl)-1H-pyrrol-2-yl)thiophene-2-carboxylic acid] |  | 100 to 1000
33 | CC(C)CCn1c(-c2ccc(O)cc2)ccc1-c1ccc(C(=O)O)s1 [VII-27, 5-(5-(4-hydroxyphenyl)-1-isopentyl-1H-pyrrol-2-yl)thiophene-2-carboxylic acid] |  | < 100
34 | CC(C)CCn1c(-c2ccc(O)cc2)ccc1-c1ccc(C(=O)O)cc1 [VII-28, 4-(5-(4-hydroxyphenyl)-1-isopentyl-1H-pyrrol-2-yl)benzoic acid] |  | < 100
35 | CC(C)Cn1c(-c2ccc(O)cc2)ccc1-c1ccc(C(=O)O)cc1 [VII-29, 4-(5-(4-hydroxyphenyl)-1-isobutyl-1H-pyrrol-2-yl)benzoic acid] |  | < 100
36 | CC(C)CCCn1c(-c2ccc(O)cc2)ccc1-c1ccc(C(=O)O)cc1 [VII-30, 4-(5-(4-hydroxyphenyl)-1-(4-methylpentyl)-1H-pyrrol-2-yl)benzoic acid] |  | < 100
37 | CC(C)OCCCn1c(-c2ccc(O)cc2)ccc1-c1ccc(C(=O)O)cc1 [VII-31, 4-(5-(4-hydroxyphenyl)-1-(3-isopropoxypropyl)-1H-pyrrol-2-yl)benzoic acid] |  | < 100
38 | CC(C)n1c(-c2ccc(O)cc2)ccc1-c1ccc(C(=O)O)cc1 [VII-32, 4-(5-(4-hydroxyphenyl)-1-isopropyl-1H-pyrrol-2-yl)benzoic acid] |  | < 100
39 | COCCn1c(-c2ccc(O)cc2)ccc1-c1ccc(C(=O)O)cc1 [VII-33, 4-(5-(4-hydroxyphenyl)-1-(2-methoxyethyl)-1H-pyrrol-2-yl)benzoic acid] |  | 100 to 1000
